Like-named read-outs stand apart in the source and are kept apart here.
Tests used:
[1] = tested on: Tgo exo^− polymerase; type: biochemical, Thermococcus species
[2] = target: Vent exo^− polymerase (Thermococcus litoralis, UniProt P30317, D141A/DEL1082-1471/DEL495-1032/E143A); assay: Primer extension with modified dNTPs, Vent exo- polymerase; type: biochemical, Thermococcus species; settings: template NucT15 (18 possible)
[3] = tested on: Klenow-fragment of Chy DNA pol I; assay: Primer extension with modified dNTPs, Chy Klenow polymerase; type: biochemical, Carboxydothermus hydrogenoformans; settings: template NucT15

Chain of Vent exo^− polymerase (P30317 with tags, fused parts or gaps D141A/DEL1082-1471/DEL495-1032/E143A): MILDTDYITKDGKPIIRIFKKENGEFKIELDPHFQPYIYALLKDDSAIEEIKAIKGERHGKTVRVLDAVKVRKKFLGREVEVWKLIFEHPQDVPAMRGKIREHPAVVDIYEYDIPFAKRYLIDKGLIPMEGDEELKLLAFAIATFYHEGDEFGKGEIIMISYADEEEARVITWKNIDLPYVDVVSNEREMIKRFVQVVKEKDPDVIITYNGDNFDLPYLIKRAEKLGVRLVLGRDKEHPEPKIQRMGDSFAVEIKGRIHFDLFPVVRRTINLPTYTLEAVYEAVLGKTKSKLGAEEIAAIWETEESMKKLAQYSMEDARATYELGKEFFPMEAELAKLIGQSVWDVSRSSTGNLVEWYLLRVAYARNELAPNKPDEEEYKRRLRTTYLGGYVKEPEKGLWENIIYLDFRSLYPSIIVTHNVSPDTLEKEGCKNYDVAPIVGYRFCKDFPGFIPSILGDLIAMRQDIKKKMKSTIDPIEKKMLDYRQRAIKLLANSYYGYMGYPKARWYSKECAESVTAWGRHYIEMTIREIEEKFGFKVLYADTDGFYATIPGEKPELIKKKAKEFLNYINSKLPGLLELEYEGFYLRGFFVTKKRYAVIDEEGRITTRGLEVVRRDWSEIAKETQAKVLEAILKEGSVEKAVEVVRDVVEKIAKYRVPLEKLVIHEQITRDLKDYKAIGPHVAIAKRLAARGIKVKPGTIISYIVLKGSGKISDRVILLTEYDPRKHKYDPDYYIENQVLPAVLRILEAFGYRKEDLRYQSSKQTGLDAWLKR

For “Rhodamin-green-5(6)-carboxyamido-[5-(3-aminoallyl)-2′desoxy-uridin-5′-triphosphate] [Rhodamine-green-dUTP]”, the “insertions in neighbouring positions” value [1] was 15-16.

For Fluorescein-12-dUTP, the “elongation of Hex7c7Gd stretch with dUTP derivative” value (shortened to “elongation of Hex7c7Gd stretch”) ([1]; template NucT3, 50 μM each, 0,1 and 1 unit polymerase) was “complete elongation” and the “product at lower polymerase concentration” value ([1]; template NucT15, 0,1 unit/reaction) was “full length products were detectable”.

With Cy5-10-dUTP the positions inserted [2] was 13.

In the case of `CCCCC#Cc1cn([C@H]2C[C@H](O)[C@@H](COP(=O)(O)OP(=O)(O)OP(=O)(O)O)O2)c2ncnc(N)c12` [Hex^7c^7Ad, 7-Hexinyl-7-Desaza-dATP], the “adjacent positions into which derivative was incorporated” value [1] is reported as 15.

For TMR-6-dUTP [TM-Rhodamine-dUTP], the positions inserted [2] was 14.

In the case of `Cc1c(CC(=O)NCCCCCC(=O)NC/C=C/c2cn([C@H]3C[C@H](O)[C@@H](COP(=O)(O)OP(=O)(O)OP(=O)(O)O)O3)c(=O)[nH]c2=O)c(=O)oc2cc(N)ccc12` [AMCA-6-dUTP], the “elongation of Hex7c7Gd stretch” value [1] is reported as “complete elongation” and the “substrate activity” value [3] is reported as “high substrate activity”.

In the case of `CCCCC#Cc1cn([C@H]2C[C@H](O)[C@@H](COP(=O)(O)OP(=O)(O)OP(=O)(O)O)O2)c2nc(N)[nH]c(=O)c12` [Hex^7c^7Gd, 7-Hexinyl-7-desaza-dGTP], the consecutive incorporations [1] is reported as “five” and the subsequent positions polymerized [1] is reported as “up to 21”.

“Rhodamin-green-5(6)-carboxyamido-ε-aminocaproyl-[5-(3-aminoallyl)-2′desoxy-uridin-5′-triphosphate] [Rhodamine-green-X-dUTP]” was tested, and the “insertions in neighbouring positions” value [1] was “up to 18”, the “major products (number of insertions)” value [1] was 13-17 and the “substrate activity / incorporation” value [1] was “very good substrate for the polymerase”.

For `O=C(CCCCCNC(=O)CCCNC(=O)CCCC[C@@H]1SC[C@@H]2NC(=O)N[C@@H]21)NC/C=C/c1cn([C@H]2C[C@H](O)[C@@H](COP(=O)(O)OP(=O)(O)OP(=O)(O)O)O2)c(=O)[nH]c1=O` [Biotin-16-dUTP], the “elongation of Hex7c7Gd stretch” value [1] was “a high molecular weight product is formed”, the “insertions in neighbouring positions” value [1] was 18 and the “product at lower polymerase concentration” value [1] was “full length products were detectable”.

For DIG-11-dUTP, the “product at lower polymerase concentration” value [1] was “full length products were detectable” and the “substrate activity / incorporation” value [1] was “high substrate activity”.

From patent US20040214221A1, “High density labeling of DNA with modified or "chromophore" carrying nucleotides and DNA polymerases used” (priority 1999, published 2004)
